Assay results from patent publication US20040058948A1, “Mappicine analogs, methods of inhibiting retroviral reverse transcriptase and methods of treating retroviruses” (priority 2002, published 2004).
Several values for one entry are separate records, joined by “and”; a condition that tells them apart may be missing. Equal entries are not always repeated.

Key:
HIV-1 replication [1] = settings: published compounds, in words; cited from earlier work
cells = settings: published compounds, in words; cited from earlier work
[2] = molecular target: T1, RNA-dependent DNA polymerase activity of HIV reverse transcriptase (Human immunodeficiency virus type 1 group M subtype B, UniProt P04585); experiment: RNA-dependent DNA polymerase activity assay of HIV reverse transcriptase; assay type: biochemical, HIV-1; settings: 10 μM inhibitor concentration, activity with analog / without analog x 100; for remaining activity at 10 µM: read-out: Residual activity (%) Polymerase
T1 construct: made in house
Outline: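 HIV reverse transcriptase RNA-dependent DNA polymerase activity measured with and without mappicine analogs at 10 μM final. Values are % residual activity: activity with compound divided by activity without, ×100.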

HIV-1 replication [3] = experiment: Cell culture viral growth assay (HIV-1 replication); assay type: cell-based; settings: Human immunodeficiency virus 1, read-out: EC50 (μM) against HIV-1 replication
[4] = molecular target: RNase H activity of HIV reverse transcriptase (Human immunodeficiency virus type 1 group M subtype B, UniProt P04585); experiment: Fluorescence (FRET)-based RNase H activity assay of HIV reverse transcriptase; assay type: biochemical, HIV-1; design: final concentration of 2.5 nM of the p51/p66 RT heterodimer in the assay; made in house; settings: for remaining activity at 10 µM / Residual activity (%) RNase H: 10 μM inhibitor concentration, activity with analog / without analog x 100; for remaining activity at 10 µM: read-out: Residual activity (%) RNase H; for IC50: read-out: IC50 (μM) against HIV RNase H in vitro
Outline: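 p51/p66 HIV-1 RT (usually 2.5 nM) cleaving a 3′-fluorescein RNA/5′-DABCYL DNA hybrid (2.5 μM stock) in 50 mM Tris pH 8.0, 60 mM KCl, 2.5 mM MgCl2, 37 °C; fluorescence rise (ex 490/em 528 nm) read over 3–60 min. Mappicine analogs at 10 μM; % residual activity or % inhibition versus compound-free enzyme.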

SMILES | Residual activity (%) Polymerase [2] [%] | Residual activity (%) RNase H [4] [%] | other results
O=C(O)C(=NNc1ccc(Cl)cc1)C(=O)O [CPHM, 2-[(4-chlorophenyl)-hydrazono]-malonic acid] |  |  | antiviral activity against HIV-1 replication in cultured cells (HIV-1 replication [1]): cannot inhibit HIV-1 replication in cultured cells; ability to penetrate cells (cells): Neither CPHM nor BTOBA are able to penetrate cells
CCC(O)c1cc2n(c(=O)c1C)Cc1c-2nc2ccc(NC(=O)OC(C)(C)C)cc2c1[Si](C)(C)C (stereo not shown) [AG 2M, 2-tert-Butyloxycarbonylamino-7-(1-hydroxypropyl)-8-methyl-12-trimethylsilanyl-11H-indolizino[1,2-b]quinolin-9-one] |  |  | remaining activity at 10 µM [2]: 80%; EC50 (HIV-1 replication [3]): ~5 µM; remaining activity at 10 µM [4]: 47%; IC50 [4]: < 10 µM and 8 µM
CCc1c2c(nc3ccc(N)cc13)-c1cc(C(O)CC)c(C)c(=O)n1C2 (stereo not shown) [AG 6M, 2-Amino-12-ethyl-7-(1-hydroxypropyl)-8-methyl-11H-indolizino[1,2-b]quinolin-9-one] |  |  | remaining activity at 10 µM [2]: 76%; EC50 (HIV-1 replication [3]): ~5 µM; remaining activity at 10 µM [4]: 57%; IC50 [4]: < 10 µM and 10 µM
COc1ccc2nc3c(c([Si](C)(C)C(C)(C)C)c2c1)Cn1c-3cc(C(O)CCC2CCCCC2)c(C)c1=O (racemic) [4Dδ] | 51 | 87 | 
Cc1ccc2nc3c(c(-c4ccccc4)c2c1)Cn1c-3cc(C(O)Cc2ccccc2)c(C)c1=O (racemic) [3Cε] | 76 | 101 | 
Cc1c(C(=O)C(C)(C)C)cc2n(c1=O)Cc1c-2nc2ccc(F)cc2c1-c1ccccc1 [3Bβκ] | 61 | 95 | 
O=C(O)C(=O)CC(=O)c1ccc(NC(=O)c2ccccc2)s1 [BTOBA, 4-[5-(benzoylamino)thien-2-yl]-2,4-dioxobutanoic acid] |  |  | antiviral activity against HIV-1 replication in cultured cells (HIV-1 replication [1]): cannot inhibit HIV-1 replication in cultured cells; ability to penetrate cells (cells): Neither CPHM nor BTOBA are able to penetrate cells
Cc1ccc2nc3c(c([Si](C)(C)C(C)(C)C)c2c1)Cn1c-3cc(C(=O)CCC2CCCCC2)c(C)c1=O [4Cδκ] | 52 | 96 | 
Cc1c(C(O)CCC2CCCCC2)cc2n(c1=O)Cc1c-2nc2ccccc2c1[Si](C)(C)C (racemic) [5Aδ] | 83 | 78 | 
CCC(=O)c1cc2n(c(=O)c1C)Cc1c-2nc2ccccc2c1[Si](C)(C)C [5Aακ] | 91 | 103 | 
CCC(O)c1cc2n(c(=O)c1C)Cc1c-2nc2ccc(OC)cc2c1[Si](C)(C)C (racemic) [5Dα] | 88 | 78 | 
Cc1c(C(=O)CCC2CCCCC2)cc2n(c1=O)Cc1c-2nc2ccc(F)cc2c1[Si](C)(C)C(C)(C)C [4Bδκ] | 56 | 96 | 
CCC(=O)c1cc2n(c(=O)c1C)Cc1c-2nc2ccc(OC)cc2c1[Si](C)(C)C [5Dακ] | 50 | 86 | 
Cc1c(C(=O)CCC2CCCCC2)cc2n(c1=O)Cc1c-2nc2ccccc2c1[Si](C)(C)C [5Aδκ] | 90 | 75 | 
CCCCCCc1c2c(nc3ccc(F)cc13)-c1cc(C(O)Cc3ccccc3)c(C)c(=O)n1C2 (racemic) [8Bε] | 92 | 84 | 
COc1ccc2nc3c(c(-c4ccccc4)c2c1)Cn1c-3cc(C(O)C(C)(C)C)c(C)c1=O (stereo not shown) [3Dβ] | 85 | 70 | 
CCC(=O)c1cc2n(c(=O)c1C)Cc1c-2nc2ccccc2c1-c1ccccc1 [3Aακ] | 64 | 87 | 
CCCCCCc1c2c(nc3ccc(OC)cc13)-c1cc(C(=O)CC)c(C)c(=O)n1C2 [8Dακ] |  |  | Residual activity (%) Polymerase ([2]; 10 µM): 90% and 51%; Residual activity (%) RNase H ([4]; 10 µM): 88% and 84%
Cc1c(C(=O)C(C)(C)C)cc2n(c1=O)Cc1c-2nc2ccccc2c1[Si](C)(C)C [5Aβκ] | 47 | 97 | 
CCCCCCc1c2c(nc3ccc(OC)cc13)-c1cc(C(O)CC)c(C)c(=O)n1C2 (racemic) [8Dα] | 85 | 66 | 
CCC(=O)c1cc2n(c(=O)c1C)Cc1c-2nc2ccc(C)cc2c1[Si](C)(C)C [5Cακ] | 93 | 109 | 

SMILES | Residual activity (%) Polymerase [2] [%] | Residual activity (%) RNase H [4] [%] | other results
CCCCCCc1c2c(nc3ccc(C)cc13)-c1cc(C(=O)Cc3ccccc3)c(C)c(=O)n1C2 [8Cεκ] | 66 | 86 | 
CCC(O)c1cc2n(c(=O)c1C)Cc1c-2nc2ccc(C)cc2c1[Si](C)(C)C(C)(C)C (stereo not shown) [4Cα] | 94 | 91 | 
CCC(O)c1cc2n(c(=O)c1C)Cc1c-2nc2ccc(N)cc2c1[Si](C)(C)C (stereo not shown) [AG 3M, 2-Amino-7-(1-hydroxypropyl)-8-methyl-12-trimethylsilanyl-11H-indolizino[1,2-b]quinolin-9-one] |  |  | remaining activity at 10 µM [2]: 123%; remaining activity at 10 µM [4]: 63%
Cc1ccc2nc3c(c([Si](C)(C)C(C)(C)C)c2c1)Cn1c-3cc(C(O)C(C)(C)C)c(C)c1=O (stereo not shown) [4Cβ] | 67 | 94 | 
Cc1c(C(O)Cc2ccccc2)cc2n(c1=O)Cc1c-2nc2ccccc2c1[Si](C)(C)C (racemic) [5Aε] | 54 | 93 | 
CCC(=O)c1cc2n(c(=O)c1C)Cc1c-2nc2ccc(OC)cc2c1-c1ccccc1 [3Dακ] | 76 | 104 | 
CCC(O)c1cc2n(c(=O)c1C)Cc1c-2nc2ccc(OC)cc2c1[Si](C)(C)C(C)(C)C (stereo not shown) [4Dα] | 77 | 79 | 
CCCCCCc1c2c(nc3ccccc13)-c1cc(C(O)CCC3CCCCC3)c(C)c(=O)n1C2 (stereo not shown) [8Aδ] | 72 | 89 | 
Cc1c(C(O)CCC2CCCCC2)cc2n(c1=O)Cc1c-2nc2ccc(F)cc2c1[Si](C)(C)C(C)(C)C (stereo not shown) [4Bδ] | 44 | 90 | 
Cc1c(C(=O)CCC2CCCCC2)cc2n(c1=O)Cc1c-2nc2ccccc2c1[Si](C)(C)C(C)(C)C [4Aδκ] | 39 | 102 | 
CCC(O)c1cc2n(c(=O)c1C)Cc1c-2nc2ccc(OC)cc2c1-c1ccccc1 (racemic) [3Dα] | 69 | 78 | 
Cc1c(C(O)CCC2CCCCC2)cc2n(c1=O)Cc1c-2nc2ccccc2c1-c1ccccc1 (racemic) [3Aδ] | 32 | 104 | 
COc1ccc2nc3c(c(-c4ccccc4)c2c1)Cn1c-3cc(C(O)Cc2ccccc2)c(C)c1=O (racemic) [3Dε] | 61 | 79 | 
CCCCCCc1c2c(nc3ccc(OC)cc13)-c1cc(C(O)C(C)(C)C)c(C)c(=O)n1C2 (racemic) [8Dβ] | 68 | 67 | 
Cc1ccc2nc3c(c(-c4ccccc4)c2c1)Cn1c-3cc(C(O)CCC2CCCCC2)c(C)c1=O (stereo not shown) [3Cδ] | 74 | 93 | 
CCC(O)c1cc2n(c(=O)c1C)Cc1c-2nc2ccc(C)cc2c1-c1ccccc1 (racemic) [3Cα] | 64 | 96 | 
COc1ccc2nc3c(c(-c4ccccc4)c2c1)Cn1c-3cc(C(=O)Cc2ccccc2)c(C)c1=O [3Dεκ] | 73 | 88 | 
CCC(O)c1cc2n(c(=O)c1C)Cc1c-2nc2ccccc2c1[Si](C)(C)C(C)(C)C (racemic) [4Aα] | 67 | 104 | 
Cc1c(C(O)CCC2CCCCC2)cc2n(c1=O)Cc1c-2nc2ccc(F)cc2c1[Si](C)(C)C (racemic) [5Bδ] | 78 | 103 | 
COc1ccc2nc3c(c([Si](C)(C)C)c2c1)Cn1c-3cc(C(O)C(C)(C)C)c(C)c1=O (stereo not shown) [5Dβ] | 76 | 102 | 
Cc1c(C(=O)CCC2CCCCC2)cc2n(c1=O)Cc1c-2nc2ccccc2c1-c1ccccc1 [3Aδκ] | 66 | 73 | 
